According to patent publication US9181183B2, “Prostaglandin D synthase inhibitory piperidine compounds” (Taiho Pharmaceutical Co., Ltd., priority 2010, dated 2015):

What follows are compounds tested against human H-PGDS (Homo sapiens, UniProt O60760) (assay: Hematopoietic prostaglandin D synthase (H-PGDS) inhibiting action, [14C]PGH2 to PGD2 conversion, TLC radioassay). Settings: compound 0.1 μM; inhibition rate relative to solvent control group; [14C] prostaglandin H2 10 μM, 25° C.
Type: biochemical
Experimental: The test was carried out according to the method of Urade, Y. et al. (J. Biol. Chem., 262, 3820-3825, (1987)). More specifically, a reaction mixture (49 μL) containing 100 mM Tris-HCl (pH 8.0), 1 mM reduced form glutathione, 0.1 mg/mL γ-globulin, human H-PGDS (q.s.), and a compound (0.1 μM) was preincubated at 25° C. for 5 minutes. A DMSO solution (final concentration: 1%) was added to the solvent control group. Subsequently, 1 μL of [^14C] prostaglandin H2 (final concentration: 10 μM) was added to start the reaction. One minute after the start of the reaction, 250 μL of a reaction stopper solution (diethylether/methanol/1M citric acid (30/4/1)) cooled with ice was added to stop the reaction. After the reaction was stopped, 50 μL of the upper layer portion (organic solvent phase) was applied to a TLC plate and developed at −20° C. for 45 minutes (developing solvent: diethylether/methanol/acetic acid (90/2/1)). After the TLC plate was dried and exposed to an imaging plate for 1 to 24 hours, the radioactivity corresponding to prostaglandin D2 (PGD2) was analyzed using an image analyzer (produced by Fujifilm Corporation). The area (%) occupied by the PGD2 band per lane and the inhibition rate (%) of each Example compound at 0.1 μM relative to the control group in each experiment were calculated.

Chain of human H-PGDS (O60760 whole entry): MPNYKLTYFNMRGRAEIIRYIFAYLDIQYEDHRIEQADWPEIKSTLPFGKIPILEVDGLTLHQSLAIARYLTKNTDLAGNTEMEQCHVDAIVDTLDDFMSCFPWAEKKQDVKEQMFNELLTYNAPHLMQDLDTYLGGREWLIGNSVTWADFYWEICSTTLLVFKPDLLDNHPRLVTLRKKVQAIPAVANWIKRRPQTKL

“N-(5-(morpholin-1-yl-carbonyl)thiazol-2-yl)-4-(pyridin-2-ylmethylene)piperidine-1-carboxamide [Example 13]” was tested. Which “H-PGDS inh. (% at 0.1 μM)” value did it give?
The value was 48.3%.

Same assay, conditions: compound 0.1 μM; inhibition rate relative to solvent control group; [14C] prostaglandin H2 10 μM, 25° C.; read-out: H-PGDS inh. (% at 0.1 μM)

O=C(Nc1ccc(CCn2ccnn2)cc1)c1cnc(NC(=O)N2CCC(=Cc3ccccn3)CC2)s1 [Example 14, N-(4-(2-(1H-1,2,3-triazol-1-yl)ethyl)phenyl)-2-(4-(pyridin-2-ylmethylene)piperidine-1-carboxamido)thiazole-5-carboxamide] was tested. Which inhibition at 0.1 µM did it give?
The inhibition at 0.1 µM was 53.9%.

Which inhibition at 0.1 µM does the source give for Cc1nccn1Cc1cnc(NC(=O)N2CCC(=Cc3ccccn3)CC2)s1 [Example 83, N-(5-((2-methyl-1H-imidazol-1-yl)methyl)thiazol-2-yl)-4-(pyridin-2-ylmethylene)piperidine-1-carboxamide] here?
The inhibition at 0.1 µM was 41.6%.

Which inhibition at 0.1 µM does the source give for COC(=O)c1ccc(N2CCC(NC(=O)N3CCC(=Cc4cc(F)ccc4F)CC3)CC2)cc1 [Example 41, Methyl 4-(4-(4-(2,5-difluorobenzylidene)piperidine-1-carboxamido)piperidin-1-yl)benzoate] here?
Its inhibition at 0.1 µM is 59%.

How did the inhibition at 0.1 µM turn out when O=C(Nc1ncc(C(=O)N2CCCCC2)s1)N1CCC(=Cc2ccccn2)CC1 [Example 17, N-(5-(piperidin-1-yl-carbonyl)thiazol-2-yl)-4-(pyridin-2-ylmethylene)piperidine-1-carboxamide] was run?
The inhibition at 0.1 µM was 65%.

O=C(Nc1ccc(Nc2ccccc2)cc1)N1CCC(=Cc2cc(F)ccc2F)CC1 [Example 72, 4-(2,5-difluorobenzylidene)-N-(4-(phenylamino)phenyl)piperidine-1-carboxamide] was tested. Which inhibition at 0.1 µM did it give?
The inhibition at 0.1 µM was 68.7%.

With COC(=O)c1ccccc1CNC(=O)N1CCC(=Cc2cc(F)ccc2F)CC1 [Example 78, Methyl 2-((4-(2,5-difluorobenzylidene)piperidine-1-carboxamido)methyl)benzoate] as the compound, how does the inhibition at 0.1 µM read?
The inhibition at 0.1 µM was 48.3%.

For O=C(Nc1ccccc1)N1CCC(NC(=O)N2CCC(=Cc3cc(F)ccc3F)CC2)CC1 [Example 56, 4-(2,5-difluorobenzylidene)-N-(1-(phenylcarbamoyl)piperidin-4-yl)piperidine-1-carboxamide], which inhibition at 0.1 µM is on record?
Its inhibition at 0.1 µM is 59.3%.

How did the inhibition at 0.1 µM turn out when O=C(Nc1ccc(Nc2ccccc2)cc1)N1CCC(=Cc2ccccn2)CC1 [Example 71, N-(4-(phenylamino)phenyl)-4-(pyridin-2-ylmethylene)piperidine-1-carboxamide] was run?
Its inhibition at 0.1 µM is 62.9%.

Which inhibition at 0.1 µM does the source give for O=C(NC1CCN(C(=O)c2cccc(F)n2)CC1)N1CCC(=Cc2cc(F)ccc2F)CC1 [Example 66, 4-(2,5-difluorobenzylidene)-N-(1-(6-fluoropicolinoyl)piperidin-4-yl)piperidine-1-carboxamide] here?
Its inhibition at 0.1 µM is 68.6%.

How did the inhibition at 0.1 µM turn out when O=C(Nc1ccccc1)Nc1ccc(NC(=O)N2CCC(=Cc3cc(F)ccc3F)CC2)cc1 [Example 73, 4-(2,5-difluorobenzylidene)-N-(4-(3-phenylureido)phenyl)piperidine-1-carboxamide] was run?
Its inhibition at 0.1 µM is 71%.

For O=C(Nc1nccs1)N1CCC(NC(=O)N2CCC(=Cc3cc(F)ccc3F)CC2)CC1 [Example 65, 4-(2,5-difluorobenzylidene)-N-(1-(thiazol-2-ylcarbamoyl)piperidin-4-yl)piperidine-1-carboxamide], which inhibition at 0.1 µM is on record?
The inhibition at 0.1 µM was 55.4%.

O=C(Nc1ccc(N2CCCCC2)cc1)c1cnc(NC(=O)N2CCC(=Cc3ccccn3)CC2)s1 [Example 16, N-(4-(piperidin-1-yl)phenyl)-2-(4-(pyridin-2-ylmethylene)piperidine-1-carboxamido)thiazole-5-carboxamide] was tested. Which inhibition at 0.1 µM did it give?
The inhibition at 0.1 µM was 52.7%.

With O=C(Nc1nc2ccc(Br)cc2s1)N1CCC(=Cc2ccccn2)CC1 [Example 1, N-(6-bromobenzo[d]thiazol-2-yl)-4-(pyridin-2-ylmethylene)-piperidine-1-carboxamide] as the compound, how does the inhibition at 0.1 µM read?
Its inhibition at 0.1 µM is 70.9%.

O=C(Nc1nccs1)c1ccc(-c2ccc(NC(=O)N3CCC(=Cc4ccccn4)CC3)cn2)cc1 [Example 29, 4-(pyridin-2-ylmethylene)-N-(6-(4-(thiazol-2-ylcarbamoyl)phenyl)pyridin-3-yl)piperidine-1-carboxamide] was tested. Which inhibition at 0.1 µM did it give?
The inhibition at 0.1 µM was 78.8%.

How did the inhibition at 0.1 µM turn out when O=C(Nc1nccs1)c1ccc(-c2cnc(NC(=O)N3CCC(=Cc4ccccn4)CC3)s2)cc1 [Example 22, 4-(pyridin-2-ylmethylene)-N-(5-(4-(thiazol-2-ylcarbamoyl)phenyl)thiazol-2-yl)piperidine-1-carboxamide] was run?
Its inhibition at 0.1 µM is 66.5%.

For O=C(NC1CCN(C(=O)c2cccs2)CC1)N1CCC(=Cc2cc(F)ccc2F)CC1 [Example 54, 4-(2,5-difluorobenzylidene)-N-(1-(thiophene-2-carbonyl)piperidin-4-yl)piperidine-1-carboxamide], which inhibition at 0.1 µM is on record?
The inhibition at 0.1 µM was 85.9%.

O=C(O)c1ccc(-c2ccc(NC(=O)N3CCC(=Cc4ccccn4)CC3)cn2)cc1 [Example 28, 4-(5-(4-(pyridin-2-ylmethylene)piperidine-1-carboxamido)pyridin-2-yl)benzoic acid] was tested. Which inhibition at 0.1 µM did it give?
Its inhibition at 0.1 µM is 53.2%.

With O=C(NC1CCN(C(=O)C(F)(F)F)CC1)N1CCC(=Cc2cc(F)ccc2F)CC1 [Example 38, 4-(2,5-difluorobenzylidene)-N-(1-(2,2,2-trifluoroacetyl)piperidin-4-yl)piperidine-1-carboxamide] as the compound, how does the inhibition at 0.1 µM read?
The inhibition at 0.1 µM was 82.9%.

Which inhibition at 0.1 µM does the source give for O=C(Nc1nc2ccc(-c3cncnc3)cc2s1)N1CCC(=Cc2ccccn2)CC1 [Example 6, N-(6-(pyrimidin-5-yl)-benzo[d]thiazol-2-yl)-4-(pyridin-2-ylmethylene)-piperidine-1-carboxamide] here?
Its inhibition at 0.1 µM is 78.8%.

Cc1nccn1Cc1cnc(NC(=O)N2CCC(=Cc3cc(F)ccc3F)CC2)s1 [Example 82, 4-(2,5-difluorobenzylidene)-N-(5-((2-methyl-1H-imidazol-1-yl)methyl)thiazol-2-yl)piperidine-1-carboxamide] was tested. Which inhibition at 0.1 µM did it give?
The inhibition at 0.1 µM was 82.7%.

With O=C(Nc1ccc2nc(NC(=O)N3CCC(=Cc4ccccn4)CC3)sc2c1)N1CCOCC1 [Example 11, N-(2-(4-(pyridin-2-ylmethylene)piperidine-1-carboxamido)benzo[d]thiazol-6-yl)morpholine-4-carboxamide] as the compound, how does the inhibition at 0.1 µM read?
The inhibition at 0.1 µM was 52.4%.

With O=C(O)c1ccc(-c2cnc(NC(=O)N3CCC(=Cc4ccccn4)CC3)s2)cc1 [Example 20, 4-(2-(4-(pyridin-2-ylmethylene)piperidine-1-carboxamido)thiazol-5-yl)benzoic acid] as the compound, how does the inhibition at 0.1 µM read?
The inhibition at 0.1 µM was 61.4%.
